Source: paper PMC12498426, “Conformational Plasticity of LptC Regulates Lipopolysaccharide Transport by the LptB2FGC Complex” (Journal of the American Chemical Society, 2025)

Assays:
[1] = target: T1, LptB2FG (Escherichia coli, UniProt P0A9V1+P0ADC6+P0AF98); set-up: gene lptF; conditions: POPE/POPG liposomes; 20 mM MgCl2; pH 7.5; 37 °C; 0-5 mM ATP; no LPS
T1 sequence (P0AF98 1-366): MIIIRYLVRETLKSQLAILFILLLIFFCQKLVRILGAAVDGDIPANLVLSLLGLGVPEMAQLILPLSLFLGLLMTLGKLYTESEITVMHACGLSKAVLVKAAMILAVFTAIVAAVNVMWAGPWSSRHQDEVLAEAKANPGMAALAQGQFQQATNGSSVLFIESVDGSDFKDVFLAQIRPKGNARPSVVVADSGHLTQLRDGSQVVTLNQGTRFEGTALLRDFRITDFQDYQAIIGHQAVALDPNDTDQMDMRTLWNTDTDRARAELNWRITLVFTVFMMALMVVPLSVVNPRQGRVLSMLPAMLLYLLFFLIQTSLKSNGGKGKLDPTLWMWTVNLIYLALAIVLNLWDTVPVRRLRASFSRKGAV
T1 sequence (P0ADC6 1-360): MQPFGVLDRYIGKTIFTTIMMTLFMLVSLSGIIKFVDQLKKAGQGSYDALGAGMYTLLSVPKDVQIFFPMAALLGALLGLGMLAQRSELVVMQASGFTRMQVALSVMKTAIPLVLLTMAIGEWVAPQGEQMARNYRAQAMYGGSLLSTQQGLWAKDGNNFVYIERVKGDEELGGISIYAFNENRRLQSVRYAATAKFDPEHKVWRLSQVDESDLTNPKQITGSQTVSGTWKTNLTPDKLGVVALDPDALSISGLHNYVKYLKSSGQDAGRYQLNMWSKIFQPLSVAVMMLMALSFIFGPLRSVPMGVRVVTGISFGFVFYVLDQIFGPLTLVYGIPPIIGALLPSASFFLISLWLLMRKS
T1 sequence (P0A9V1 2-241): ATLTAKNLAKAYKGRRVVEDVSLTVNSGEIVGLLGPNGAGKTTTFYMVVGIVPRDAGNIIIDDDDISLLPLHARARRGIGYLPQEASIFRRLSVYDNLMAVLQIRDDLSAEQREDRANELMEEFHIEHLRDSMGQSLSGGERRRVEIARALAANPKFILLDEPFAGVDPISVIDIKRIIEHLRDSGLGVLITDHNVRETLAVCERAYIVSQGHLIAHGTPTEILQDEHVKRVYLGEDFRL

[2] = target: T2, LptB2FGC (Escherichia coli, UniProt P0A9V1+P0ADC6+P0AF98); assay: nanoDSF thermal shift; type: binding; conditions: 2-fold molar excess of Ra-LPS; DDM micelles; pH 7.5; 5 mM MgCl2
T2 construct: gene lptF; in vitro assembled from LptB2FG (N-terminal His6 on LptB) and full-length LptC (C-terminal His6); liposomes or resolubilized in DDM; 2:1:1:1, 158 kDa; with Lipopolysaccharide export system protein LptC

[3] = target: T1, LptB2FG; assay: nanoDSF thermal shift; type: binding; set-up: gene lptF; full-length proteins, N-terminal His6-tag on LptB, pETDuet-1, expressed in E. coli, in DDM micelles or POPE/POPG liposomes; B2FG complex; conditions: 2-fold molar excess of Ra-LPS; DDM micelles; pH 7.5; 5 mM MgCl2
[4] = target: T3, LptB2FG complex (E. coli, UniProt P0A9V1 1-241; P0AF98 1-366; P0ADC6 1-360); assay: native MS; LILBID-MS of LptB2FGC resolubilised in DDM micelles, apo state, 20 mM Tris-HCl pH 7.5, 0.05% DDM; conditions: both partners purified
T3 construct: LptF, transmembrane domain subunit of the lipopolysaccharide transporter, E. coli; LptG, transmembrane domain subunit of the lipopolysaccharide transporter, E. coli; Uniformly 13C-labelled for the TEDOR experiments; also called 13C-LptB2FG; ABC transporter LptB2FG; source: E. coli, co-expressed from pETDuet-1, membranes solubilised in DDM, purified (Ni-NTA); expression as previously described; …
T3 sequence (looked up) 1: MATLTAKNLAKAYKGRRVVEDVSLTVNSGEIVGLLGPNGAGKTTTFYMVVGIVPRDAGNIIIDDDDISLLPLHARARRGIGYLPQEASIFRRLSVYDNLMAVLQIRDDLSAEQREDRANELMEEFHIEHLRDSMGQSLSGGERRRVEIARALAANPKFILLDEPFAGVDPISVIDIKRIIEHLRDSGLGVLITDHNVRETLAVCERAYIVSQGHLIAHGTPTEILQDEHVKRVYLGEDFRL
T3 sequence (looked up) 2: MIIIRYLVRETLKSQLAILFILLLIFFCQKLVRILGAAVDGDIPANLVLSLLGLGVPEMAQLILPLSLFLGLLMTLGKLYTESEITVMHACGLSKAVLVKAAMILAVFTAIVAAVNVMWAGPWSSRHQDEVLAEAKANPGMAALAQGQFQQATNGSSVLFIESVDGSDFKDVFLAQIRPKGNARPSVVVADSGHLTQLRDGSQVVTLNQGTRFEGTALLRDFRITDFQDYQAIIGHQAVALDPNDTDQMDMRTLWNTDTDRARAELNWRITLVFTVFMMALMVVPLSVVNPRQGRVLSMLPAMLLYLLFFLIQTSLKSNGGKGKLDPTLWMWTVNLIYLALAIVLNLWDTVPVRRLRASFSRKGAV
T3 sequence (looked up) 3: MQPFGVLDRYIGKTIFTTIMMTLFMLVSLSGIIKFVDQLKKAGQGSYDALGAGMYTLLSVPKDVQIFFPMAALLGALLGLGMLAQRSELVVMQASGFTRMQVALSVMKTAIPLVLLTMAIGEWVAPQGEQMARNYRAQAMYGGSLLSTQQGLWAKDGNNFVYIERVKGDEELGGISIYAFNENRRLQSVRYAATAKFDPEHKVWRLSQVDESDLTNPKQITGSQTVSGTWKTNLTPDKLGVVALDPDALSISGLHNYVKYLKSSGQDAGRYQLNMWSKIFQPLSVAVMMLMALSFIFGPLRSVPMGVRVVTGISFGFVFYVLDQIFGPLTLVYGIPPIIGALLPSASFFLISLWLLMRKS

[5] = target: T3, LptB2FG complex; assay: thermal shift assay (nanoDSF); LptB2FG and resolubilised LptB2FGC in 50 mM HEPES pH 7.5, 150 mM NaCl, 5 mM MgCl2, 5% glycerol, 0.05% DDM; 1 °C/min from 25 to 85 °C; first derivative of the 350 nm fluorescence; conditions: both partners purified

## Nc1ncnc2c1ncn2[C@@H]1O[C@H](COP(=O)(O)OP(=O)(O)OP(=O)(O)O)[C@@H](O)[C@H]1O [ATP]
[1]
  malachite green ATPase assay, proteoliposomes: activity of LptB2FG and LptB2FGC was determined by measuring the release of inorganic phosphate

## Ra-LPS
[2]
  increase in melting temperature: -271 °C
[3]
  shift in melting temperature: ~ 9 K

B1: LptC, full length with its transmembrane helix (natural protein, E. coli, UniProt P0ADV9 1-191, looked up)
chain: MSKARRWVIIVLSLAVLVMIGINMAEKDDTAQVVVNNNDPTYKSEHTDTLVYNPEGALSYRLIAQHVEYYSDQAVSWFTQPVLTTFDKDKIPTWSVKADKAKLTNDRMLYLYGHVEVNALVPDSQLRRITTDNAQINLVTQDVTSEDLVTLYGTTFNSSGLKMRGNLRSKNAELIEKVRTSYEIQNKQTQP
notes: LptC, E. coli, full length including the transmembrane helix; Isotope labelled for NMR (13C,15N-lysine or uniform 15N); also called 15N-LptC; 15N,13C-Lys-LptC; source: E. coli BL21(DE3), pBAD33.1, membranes solubilised in LS detergent, purified (Ni-NTA)
[4]
  stoichiometry N: 1 LptC per LptB2FG
[5]
  increase of melting temperature (nanoDSF): 11 K
